# Laboratory results from US20240325370A1, “THERAPEUTIC REGIMENS OF A DEGRADER OF BRD9” (FOGHORN THERAPEUTICS INC., priority 2021, published 2024).
# “Also recorded” adds a separate entry of the source.
# Experiments:
# [1] = test system: synovial sarcoma cell lines (SYO1, Yamato, HS-SY-II, and ASKA); test: Growth of synovial sarcoma cell lines (IncuCyte confluency, crystal violet, colonies); type: cell-based, human; details: 1 μM or indicated concentrations
# Experimental: (§1) Cells were treated with DMSO or the BRD9 degrader, Compound 1, at indicated concentrations, and proliferation was monitored from day 7 to day 14 by measuring confluency over time using an IncuCyte live cell analysis system (FIG. 4). Growth medium and compounds were refreshed every 3-4 days.
# (§2) Cells were seeded into 12-well plates and treated with DMSO, 1 μM BRD9 inhibitor, Compound 2 (also known as BI-7273, see Martin et al, J Med Chem. 59 (10): 4462-4475 (2016); see structure of compound 2 below), or 1 μM BRD9 degrader, Compound 1.
# (§3) The number of cells was optimized for each cell line. Growth medium and compounds were refreshed every 3-5 days. SYO1, Yamato, A549, 293T and HS-SY-II cells were fixed and stained at day 11. ASKA cells were fixed and stained at day 23. Staining was done by incubation with crystal violet solution (0.5 g Crystal Violet, 27 ml 37% Formaldehyde, 100 mL 10×PBS, 10 mL Methanol, 863 dH20 to 1 L) for 30 min followed by 3× washes with water and drying the plates for at least 24 h at room temperature. Subsequently plates were scanned on an Odyssey CLx Imaging system (FIG. 5).
# (§4) Cells were seeded into 96-well ultra-low cluster plate (Costar, #7007) in 200 μL complete media and treated at day 2 with DMSO, Staurosporin, or BRD9 degrader, Compound 1, at indicated doses (FIG. 2C). Media and compounds were changed every 5 d and cell colonies were imaged at day 14.
# [2] = test system: non-synovial control cancer cell lines (293T, A549, G401); test: Growth of non-synovial control cancer cell lines; type: cell-based
# Experimental: as §1, §2, §3, §4
# [3] = test system: synovial sarcoma cell lines (SYO1, HS-SY-II, and ASKA); test: Crystal violet growth assay, synovial sarcoma cell lines, day 14; type: cell-based, human; details: treated daily
# Experimental: (§5) Procedure: Cells were seeded into 6-well or 12-well plates and were treated daily with a BRD9 degrader (Compound 1), a bromo-domain BRD9 binder (Compound 2), E3 ligase binder (lenalidomide), DMSO, or staurosporin (positive control for cell killing), at indicated concentrations. The number of cells was optimized for each cell line. Growth media was refreshed every 5 days. By day 14, medium was removed, cells were washed with PBS, and stained using 500 μL of 0.005% (w/v) crystal violet solution in 25% (v/v) methanol for at least 1 hour at room temperature. Subsequently plates were scanned on an Odyssey CLx Imaging system.
# [4] = test system: non-synovial control cancer cell lines (RD, HCT116, and Calu6); test: Crystal violet growth assay, non-synovial control cancer cell lines, day 14; type: cell-based; details: treated daily
# Experimental: as §5
# [5] = test system: SYO1 cells; test: Cell cycle analysis (Click-iT Plus EdU Flow Cytometry Assay); type: cell-based, human; details: 200 nM or 1 μM for 8 or 13 days; compared to DMSO and lenalidomide
# Experimental: (§6) Procedure: SYO1 cells were treated for 8 or 13 days with DMSO, a BRD9 degrader (Compound 1) at 200 nM or 1 μM, or an E3 ligase binder (lenalidomide) at 200 nM. Compounds were refreshed every 5 days. Cell cycle analysis was performed using the Click-iTT Plus EdU Flow Cytometry Assay (Invitrogen). The apoptosis assay was performed using the Annexin V-FITC Apoptosis Detection Kit (Sigma A9210). Assays were performed according to the manufacturer's protocol.
# [6] = test system: SYO1 cells; test: Apoptosis assay (Annexin V-FITC Apoptosis Detection Kit); type: cell-based, human; details: 8 days; compared to DMSO controls
# Experimental: as §6
# [7] = test system: ASKA synovial sarcoma xenografts; test: ASKA synovial sarcoma xenograft efficacy; type: in vivo; details: for Tumor Growth (%) on Day 21 / Tumor Size (mm^3) on Day 21: Mean ± SEM; for T/C (%) / TGI (%): Day 21
# Experimental: A study was conducted to examine anti-tumor efficacy of compound S-D1 with BIW IV dosing of the racemate, compound D1, for 3 weeks utilizing a second xenograft model of human synovial sarcoma, ASKA. Vehicle (0.5% HPMC, 0.1% Tween 80 in water, pH 1.3 to 1.5), administered orally, was used as the general comparator for all test article responses (i.e., tumor growth and body weight changes). Pazopanib and ifosfamide, two agents currently used in clinic to treat synovial sarcoma patients were compared to compound D1 treatment alone. Pazopanib was administered orally at 40 mg/kg QD and ifosfamide was given IV at 80 mg/kg QD for the first 3 days (Days 0, 1, and 2) in the 3-week treatment period, mimicking the equivalent treatment regimens for both drugs in human patients.
# [8] = 40 mg/kg QD oral 3 weeks, ASKA xenograft
# [9] = 80 mg/kg QD IV Day 0 to Day 2, ASKA xenograft
smiles,measurement,setting,value
COc1cc(-c2cn(C)c(=O)c3cnccc23)cc(OC)c1CN(C)CC(=O)NCCOCCOCCNc1cccc2c1C(=O)N(C1CCC(=O)NC1=O)C2=O (centres unmarked) [Compound 1],inhibition of the growth of the cells,[1],inhibition of the growth of the cells
same,inhibition of the growth of the cells,[2],does not result in inhibition of the growth
same,inhibition of the growth of the cells,[3],inhibition of the growth of the cells; also recorded: most significant growth inhibition
same,inhibition of the growth of the cells,[4],did not result in inhibition of the growth
same,numbers of cells in the S-phase of the cell cycle,[5],reduced numbers of cells in the S-phase
same,numbers of early- and late-apoptotic cells,[6],increased numbers of early- and late-apoptotic cells
COc1cc(-c2cn(C)c(=O)c3cnccc23)cc(OC)c1CN(C)C [Compound 2],inhibition of the growth of the cells,[1],inhibition of the growth of the cells
same,inhibition of the growth of the cells,[2],does not result in inhibition of the growth
same,inhibition of the growth of the cells,[3],inhibition of the growth of the cells
same,inhibition of the growth of the cells,[4],did not result in inhibition of the growth
"Cc1ccc(Nc2nccc(N(C)c3ccc4c(C)n(C)nc4c3)n2)cc1S(N)(=O)=O [Pazopanib, reference compound]",Tumor Growth (%) on Day 21,[7]; [8],480 ± 33%
same,Tumor Size (mm^3) on Day 21,[7]; [8],537 ± 56 mm^3
same,T/C (%),[7]; 40 mg/kg QD oral 3 weeks,39.4%
same,TGI (%),[7]; 40 mg/kg QD oral 3 weeks,60.6%
"O=P1(NCCCl)OCCCN1CCCl (centres unmarked) [Ifosfamide, reference compound]",Tumor Growth (%) on Day 21,[7]; [9],820 ± 56%
same,Tumor Size (mm^3) on Day 21,[7]; [9],1164 ± 126 mm^3
same,T/C (%),[7]; 80 mg/kg QD IV Day 0 to Day 2,67.2%
same,TGI (%),[7]; 80 mg/kg QD IV Day 0 to Day 2,32.8%
same,tolerability (body weight),"[7]; ASKA xenograft, 3-week treatment period",transient body weight loss occurred but recovered within a few days
same,tumor growth inhibition achieved,"[7]; pazopanib 40 mg/kg QD oral, ifosfamide 80 mg/kg QD IV Days 0, 1, 2, ASKA xenograft",partial TGI
